Measured values published in patent US20190255073A1, “ESTERS OF 3-POLYAMINE DERIVATIVES OF BILE ACIDS FOR THE TREATMENT OF INFECTIONS” (VIRBAC, priority 2016, published 2019).
Converted amounts (≈) assume the structure as drawn.

Columns and labels:
E. coli (1956) = experiment: MIC determination by microplate dilution, E. coli animal strain; type: cell-based, Escherichia coli; conditions: Escherichia coli, Gram-negative, Mueller-Hinton medium, 24 h, 37° C.
Procedure, shortened: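 OD620 read-out after 24 h at 37 °C. Mueller-Hinton broth, 0.5 cascade dilution of test compound, wells seeded to OD 0.01. Stock 5 mg/mL in DMSO/MeOH 50/50; duplicate runs.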

P. aeruginosa (1051575) [1] = experiment: Potentiation of erythromycin activity; type: cell-based, Pseudomonas aeruginosa; conditions: concentration of compound required with erythromycin 2 μg/mL
Protocol: (§1) This method requires the use of a 96-well plate: 100 μL of a liquid culture medium are placed in each well and then seeded with the microbial suspension prepared previously. The required volume to be seeded is calculated for an OD of 0.01, which corresponds to about 5×10^6 bacteria in each well. In this plate, the first line corresponds to a negative control (200 μL of sterile culture medium in each well), the second line corresponds to a positive control (100 μL of sterile culture medium+100 μL of the bacterial suspension), and the third line contains 192 μL of culture medium; 8 μL of compound of formula (I) to be tested are placed in each well. Thereafter, a cascade dilution is performed from this line. μL of a doxycycline solution (1 mg dissolved in 20 mL) are then added to each well of the lines 3 to 8 to obtain a final antibiotic concentration of 2 μg/mL. 92 μL of bacterial suspension are then added to lines 3 to 8. […] After 24 hours of incubation at 37° C., 40 μL of nitro tetrazolium iodide are added to each well to reveal the presence of live bacteria by staining the medium pink.
The procedure is identical to that indicated in Example 5 above. 8 μL of an antibiotic solution under consideration (1 mg dissolved in 20 mL) are added to obtain a final antibiotic concentration of 2 μg/mL instead of 8 μL of a doxycycline solution.
(§2) The results are given in table V. They indicate the concentration of compound of formula (I) required to be able to restore the activity of the antibiotic under consideration.

P. aeruginosa (1051575) [2] = experiment: Potentiation of chloramphenicol activity; type: cell-based, Pseudomonas aeruginosa
Protocol: as §1, with “Thereafter, a cascade dilution is performed from this line. μL of a doxycycline solution (1 mg dissolved in 20 mL) are then added to each well of the lines 3 to 8 to obtain a final antibiotic concentration of 2 μg/mL.” left out
The procedure is identical to that indicated in Example 5 above. […]
as §2

CC(C)OC(=O)CC[C@@H](C)[C@H]1CCC2C3C(CC[C@@]21C)[C@@]1(C)CC[C@H](NCCCN(CCCN)CCCN)CC1C[C@H]3O (stereo partly drawn) [(39), isopropyl 3β-(tris(3-aminopropyl)amine)chenodeoxycholate]
MIC (E. coli (1956)): 28 µg/mL (≈ 46.3 µM) | MIC P. aeruginosa (1051575), compound + erythromycin (P. aeruginosa (1051575) [1]): 30 µg/mL | MIC P. aeruginosa (1051575), compound + chloramphenicol (P. aeruginosa (1051575) [2]; concentration of compound required with chloramphenicol 2 μg/mL): 4 µg/mL | MIC P. aeruginosa (1051575), compound + chloramphenicol (P. aeruginosa (1051575) [2]; concentration of compound required with chloramphenicol 4 μg/mL): 2 µg/mL
